One may read the IC50 as the concentration that inhibits the measured activity by half. Broadly, the melting point is the temperature, or range, at which the solid turns liquid.

Converted amounts (≈) assume the structure as drawn. Read-outs that look alike come from different tables or passages of the source.

In data set [1] the target is T1, urease (Canavalia ensiformis, UniProt P07374). The experiment in a line: biochemical. Here is the method:
During the experiments all the compounds were evaluated at 0.5 mM each in triplicate.

For data set [2], the target named is T1, urease. Conditions: reported literature value of the standard; read-out: Urease Inhibition Activity IC50 ± SEM (Reported) (converted); cited from earlier work.
Data set [3] relates to ROS from zymosan activated whole blood cells. Nature of the data set: Oxidative burst assay (in vitro anti-inflammatory, ROS inhibition). Format: cell-based, human. The note with it: for Anti-Inflammatory Activity IC50 ± SD: observed, ROS inhibition, zymosan activated whole blood cells, screening concentration 25 µg/mL, <50% inhibition = inactive; for IC50: Homo sapiens, Whole blood cell, read-out: Anti-Inflammatory Activity IC50 ± SD. The method, then: In this experiment all the compounds were evaluated at 25 µg/mL, each in triplicate.
All studies on human blood cells was carried out after an approval from independent ethics committee (Prof. Dr. Ghazala H. Rizwani Chair, IEC, Prof. Qamar Amin, Prof, Dr. Muddasir Uddin, Dr. Shahnaz Ghazi, Dr. SamiuzZaman, Prof. Dr. Ahsana Dar Farooq, Dr. M. Raza Shah member IEC), International Center for Chemical and Biological Sciences, University of Karachi, No: ICCBS/IEC-008-BC-2015/Protocol/1.0. Informed consents were obtained from the volunteers before drawing the blood. All the experiments were performed in accordance with relevant guidelines and regulations.

Another data set can be described thus: in vitro. Conditions: mouse.
In data set [4] the test system is 3T3 normal (mouse fibroblast) cell line. The experiment in a line: 3T3 cytotoxicity assay (MTT). Conditions: read-out: Cytotoxicity (3T3 Cell line) IC50 ± SD; observed; screened at 30 µM; <50% inhibition at 30 µM = inactive.
Method: (§1) In this experiment all the compounds were evaluated at 30 µM each in triplicate.
Data set [5] has the same test system.
Method: as §1
The subject of data set [6] is ROS from zymosan activated whole blood cells. More on the design: method as in PMID 6178787, PMID 28202019. The note with it: reported literature value of the standard; cited from earlier work.
Data set [7] is described as follows: 3T3 cytotoxicity assay (MTT). Conditions: mouse.
Method: as §1
[8] abbreviates: observed, screening concentration 0.5 mM, <50% inhibition = inactive, Insoluble = partially soluble in HPLC methanol of the protocol, read-out: Urease Inhibition Activity IC50 ± SEM.
Where [9] appears, read: observed, screening concentration 0.5 mM, <50% inhibition = inactive, Insoluble = partially soluble in HPLC methanol of the protocol.

T1 sequence (P07374 whole entry, looked up): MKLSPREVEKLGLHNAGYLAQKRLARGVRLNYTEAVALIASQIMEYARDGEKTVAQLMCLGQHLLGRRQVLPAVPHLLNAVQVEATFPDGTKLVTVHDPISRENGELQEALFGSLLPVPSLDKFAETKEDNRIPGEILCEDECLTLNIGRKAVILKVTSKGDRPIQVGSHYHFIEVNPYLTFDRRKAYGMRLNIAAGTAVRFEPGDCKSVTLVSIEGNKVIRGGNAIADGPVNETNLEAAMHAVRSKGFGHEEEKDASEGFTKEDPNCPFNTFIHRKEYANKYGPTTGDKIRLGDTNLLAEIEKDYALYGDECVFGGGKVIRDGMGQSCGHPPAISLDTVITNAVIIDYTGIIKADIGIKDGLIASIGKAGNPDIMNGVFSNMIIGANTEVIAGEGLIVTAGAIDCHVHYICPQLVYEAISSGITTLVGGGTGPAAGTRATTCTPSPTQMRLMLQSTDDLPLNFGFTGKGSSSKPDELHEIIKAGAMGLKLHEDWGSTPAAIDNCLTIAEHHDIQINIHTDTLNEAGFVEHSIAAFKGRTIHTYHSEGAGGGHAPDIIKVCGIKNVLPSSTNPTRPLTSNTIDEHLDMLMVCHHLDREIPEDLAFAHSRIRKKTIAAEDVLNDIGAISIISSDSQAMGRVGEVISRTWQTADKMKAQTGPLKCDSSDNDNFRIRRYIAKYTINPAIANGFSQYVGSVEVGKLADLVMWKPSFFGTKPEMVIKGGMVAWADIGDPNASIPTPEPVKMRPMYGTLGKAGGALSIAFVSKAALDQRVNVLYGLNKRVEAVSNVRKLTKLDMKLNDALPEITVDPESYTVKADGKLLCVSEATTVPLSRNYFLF

Regarding `CC(=O)NO` [Aetohydaoxamic acid, acetohydroxamic acid, reference compound], the IC50 on urease [1] (setting [8]) is 20.3 ± 0.4 µM; at urease [2], 17.2 µM.
`O=C(NNC(=S)Nc1ccccc1F)c1ccncc1` [Compound 3, N-(2-Fluorophenyl)-2-isonicotinoylhydrazinecarbothioamide] yielded a melting point of 241 to 242 °C. In addition, the “Anti-Inflammatory Activity IC50 ± SD” value in [3] is on record as “Inactive”. Moreover, at urease [1] (setting [9]), the “Urease Inhibition Activity IC50 ± SEM” value is “Inactive^c”. Also, the IC50 in the data set “in vitro” was > 30 µM.
Compound `O=C(NNC(=S)Nc1cccc(Cl)c1Cl)c1ccncc1` [Compound 4, N-(2,3-Dichlorophenyl)-2-isonicotinoylhydrazinecarbothioamide] gave a melting point of 198 to 199 °C. For the same compound, the “Anti-Inflammatory Activity IC50 ± SD” value in [3] is “Inactive”. Moreover, the IC50 against urease [1] is 38.8 ± 0.35 µM. Also, in the data set “in vitro”, the IC50 is > 30 µM.
Turning to `O=C(NNC(=S)Nc1cc(Cl)ccc1Cl)c1ccncc1` [Compound 5, N-(2,5-Dichlorophenyl)-2-isonicotinoylhydrazinecarbothioamide], the melting point was 172 to 173 °C. In addition, in [3], the IC50 worked out at 18.5 ± 1 µg/mL (≈ 54.2 µM). On urease [1], this compound registered a concentration for half-maximal inhibition (IC50) of 36.5 ± 0.14 µM. In the data set “in vitro”, the IC50 is > 30 µM.
Consider `O=C(NNC(=S)Nc1c(Cl)cccc1Cl)c1ccncc1` [Compound 6, N-(2,6-Dichlorophenyl)-2-isonicotinoylhydrazinecarbothioamide], for which the melting point was in the range of 127 to 128 °C. In data set [3], the “Anti-Inflammatory Activity IC50 ± SD” value is recorded as “Inactive”. Moreover, the “Urease Inhibition Activity IC50 ± SEM” value at urease [1] (setting [9]) is given as “Insoluble”. In addition, in “in vitro”, the IC50 was > 30 µM.
`O=C(NNC(=S)Nc1c(F)cccc1F)c1ccncc1` [Compound 7, N-(2,6-Difluorophenyl)-2-isonicotinoylhydrazinecarbothioamide]: the melting point was in the range of 248 to 249 °C. Also, the “Anti-Inflammatory Activity IC50 ± SD” value in [3] is recorded as “Inactive”. At urease [1], this compound came in with a half-inhibitory concentration (IC50) of 46.3 ± 0.43 µM. For the same compound, the IC50 in “in vitro” was > 30 µM.
The like results for `O=C(NNC(=S)Nc1cc(C(F)(F)F)ccc1Cl)c1ccncc1` [Compound 8, N-(2-Chloro-5-(trifluoromethyl)phenyl)-2-isonicotinoylhydrazinecarbothioamide] were, in that order, 183 to 184 °C, “Inactive”, 44.4 ± 0.43 µM and > 30 µM.
Turning to `O=C(NNC(=S)Nc1ccc(Cl)c(C(F)(F)F)c1)c1ccncc1` [Compound 9, N-(4-Chloro-3-(trifluoromethyl)phenyl)-2 isonicotinoylhydrazinecarbothioamide], the melting point lay in the range of 231 to 232 °C. Also, the IC50 in [3] worked out at 26.7 ± 2.5 µg/mL (≈ 71.2 µM). This compound also had an IC50 on urease [1] of 14.2 ± 1.38 µM. For the same compound, the 50% inhibitory concentration (IC50) in the data set “in vitro” is > 30 µM.
Consider `N#Cc1ccc(NC(=S)NNC(=O)c2ccncc2)cc1` [Compound 10, N-(4-Cyanophenyl)-2-isonicotinoylhydrazinecarbothioamide], for which the melting point fell in the range of 162 to 163 °C. For the same compound, in data set [3], the “Anti-Inflammatory Activity IC50 ± SD” value is listed as “Inactive”. The compound further yielded a half-inhibitory concentration (IC50) at urease [1] of 15.7 ± 1.32 µM. The IC50 in “in vitro” is > 30 µM.
As for `O=C(NNC(=S)Nc1ccc(OC(F)(F)F)cc1)c1ccncc1` [Compound 11, 2-Isonicotinoyl-N-(4-(trifluoromethoxy)phenyl) hydrazine carbothioamide], the “Anti-Inflammatory Activity IC50 ± SD” value in data set [3] is “Inactive”. Also, the figures for the IC50 (at urease [1] (setting [8]); in data set [4]) were 13.2 ± 1.64 µM and > 30 µM, respectively.
On to `O=C(NNC(=S)Nc1c(F)c(F)c(F)c(F)c1F)c1ccncc1` [Compound 12, 2-Isonicotinoyl-N-(perfluorophenyl) hydrazinecarbothioamide], for which the “Anti-Inflammatory Activity IC50 ± SD” value in data set [3] came out at 27.7 ± 2.4 µg/mL. In addition, the values for the IC50 (on urease [1] (setting [8]); in [5]) were 12.3 ± 1.04 µM and > 30 µM, respectively.
`O=C(NNC(=S)NC1CCCC1)c1ccncc1` [Compound 13, N-Cyclopentyl-2-isonicotinoylhydrazinecarbothioamide] registered a melting point of 223 to 224 °C. In data set [3], the “Anti-Inflammatory Activity IC50 ± SD” value is reported as “Inactive”. In addition, at urease [1], half-maximal inhibition (IC50) was put at 13.6 ± 1.61 µM. In addition, in “in vitro”, the IC50 was > 30 µM.
In turn, `O=C(NNC(=S)Nc1ccccc1Br)c1ccncc1` [Compound 14, N-(2-Bromophenyl)-2-isonicotinoylhydrazinecarbothioamide] had a melting point of 156 to 157 °C. In addition, the “Anti-Inflammatory Activity IC50 ± SD” value in data set [3] was “Inactive”. For the same compound, the half-maximal inhibitory concentration (IC50) against urease [1] worked out at 35.8 ± 1.89 µM. Besides, in the data set “in vitro”, the IC50 is > 30 µM.
The compound `O=C(NNC(=S)Nc1ccc(F)cc1F)c1ccncc1` [Compound 15, N-(2,4-Difluorophenyl)-2-isonicotinoylhydrazinecarbothioamide] came in with a melting point of 191 to 192 °C. Also, the “Anti-Inflammatory Activity IC50 ± SD” value in data set [3] is on record as “Inactive”. Further, the IC50 at urease [1] is 34.1 ± 0.45 µM. Besides, in “in vitro”, the IC50 is > 30 µM.
As to `O=C(NNC(=S)Nc1cccc(F)c1)c1ccncc1` [Compound 16, N-(3-Fluorophenyl)-2-isonicotinoylhydrazinecarbothioamide], the melting point fell in the range of 174 to 175 °C. Besides, in [3], the IC50 stood at 29.7 ± 1.7 µg/mL (≈ 102 µM). At urease [1], half-maximal inhibition (IC50) required 21.5 ± 1.3 µM. Also, in “in vitro”, the half-maximal inhibitory concentration (IC50) is > 30 µM.
For the compound `O=C(NNC(=S)Nc1cccc(I)c1)c1ccncc1` [Compound 17, N-(3-Iodophenyl)-2-isonicotinoylhydrazinecarbothioamide], the melting point lay in the range of 192 to 193 °C. In addition, the IC50 in data set [3] turned out to be 36.9 ± 3 µg/mL (≈ 92.7 µM). Besides, at urease [1], the concentration for half-maximal inhibition (IC50) worked out at 14.7 ± 1.01 µM. The IC50 in “in vitro” is > 30 µM.
As to `O=C(NNC(=S)Nc1ccc(Cl)cc1)c1ccncc1` [Compound 18, N-(4-Chlorophenyl)-2-isonicotinoylhydrazine carbothioamide], the “Anti-Inflammatory Activity IC50 ± SD” value in data set [3] is recorded as “Inactive”. The concentration for half-maximal inhibition (IC50) against urease [1] was found to be 26.3 ± 1.59 µM; in “in vitro” it was 29.5 ± 1.9 µM.
`O=C(NNC(=S)Nc1ccc(F)cc1)c1ccncc1` [Compound 19, N-(4-Fluorophenyl)-2-isonicotinoylhydrazinecarbothioamide] came in with a melting point of 191 to 192 °C. Besides, the “Anti-Inflammatory Activity IC50 ± SD” value in data set [3] is recorded as “Inactive”. Besides, the IC50 on urease [1] turned out to be 12.7 ± 0.8 µM. In “in vitro”, the IC50 was > 30 µM.
As to `COc1ccc(NC(=S)NNC(=O)c2ccncc2)cc1` [Compound 20, 2-Isonicotinoyl-N-(4-methoxyphenyl) hydrazinecarbothioamide], the “Anti-Inflammatory Activity IC50 ± SD” value in data set [3] was “Inactive”. In addition, the IC50 was 22 ± 1.15 µM at urease [1] (setting [8]) and > 30 µM in data set [5].
Turning to `O=C(NNC(=S)Nc1cc(Cl)c(Cl)cc1Cl)c1ccncc1` [Compound 21, Isonicotinoyl-N-(2,4,5-trichlorophenyl) hydrazinecarbothioamide], the “Anti-Inflammatory Activity IC50 ± SD” value in [3] is reported as “Inactive”. Moreover, the IC50 on urease [1] (setting [8]) was 28.2 ± 1.48 µM; in data set [5], > 30 µM.
Compound `O=C(NNC(=S)Nc1cccc(Br)c1)c1ccncc1` [Compound 22, N-(3-Bromophenyl)-2-isonicotinoylhydrazinecarbothioamide] yielded a melting point of 192 to 193 °C. For the same compound, the IC50 in data set [3] was determined as 25.1 ± 0.4 µg/mL (≈ 71.5 µM). On urease [1], this compound came in with an IC50 of 22.1 ± 1.91 µM. In addition, the IC50 in the data set “in vitro” was > 30 µM.
As for `O=C(NNC(=S)NC1CCCCC1)c1ccncc1` [Compound 23, N-Cyclohexyl-2-isonicotinoylhydrazinecarbothioamide], the melting point was in the range of 212 to 213 °C. Besides, in [3], the concentration for half-maximal inhibition (IC50) amounted to 12.3 ± 1.2 µg/mL (≈ 44.2 µM). The same compound had an IC50 against urease [1] of 22.4 ± 1.83 µM. In “in vitro”, the IC50 is > 30 µM.
Turning to `O=C(NNC(=S)Nc1ccccc1)c1ccncc1` [Compound 24, 2-Isonicotinoyl-N-phenylhydrazinecarbothioamide], in data set [3], the “Anti-Inflammatory Activity IC50 ± SD” value is listed as “Inactive”. Also, the IC50 against urease [1] was 63.2 ± 2 µM; in “in vitro”, > 30 µM.
For the compound `CCCCCCNC(=S)NNC(=O)c1ccncc1` [Compound 25, N-Hexyl-2-isonicotinoylhydrazinecarbothioamide], the melting point lay in the range of 215 to 216 °C. Further, the “Anti-Inflammatory Activity IC50 ± SD” value in [3] is “Inactive”. Besides, the “Urease Inhibition Activity IC50 ± SEM” value at urease [1] (setting [9]) is “Insoluble”. Moreover, the IC50 in “in vitro” was > 30 µM.
Take `O=C(NNC(=S)Nc1cccc(N=C=S)c1)c1ccncc1` [Compound 26]: the melting point is 195 to 196 °C.
Take `O=C(NNC(=S)Nc1cccc([N+](=O)[O-])c1)c1ccncc1` [Compound 27, 2-Isonicotinoyl-N-(3-nitrophenyl) hydrazinecarbothioamide]: the “Anti-Inflammatory Activity IC50 ± SD” value in data set [3] is given as “Inactive”. Besides, the “Urease Inhibition Activity IC50 ± SEM” value at urease [1] (setting [9]) is “Insoluble^d”. In data set [5], the IC50 is > 30 µM.
`CC(C)Cc1ccc(C(C)C(=O)O)cc1` (stereo not shown) [Ibuprofen, reference compound]: in data set [3], the IC50 came to 11.2 ± 1.9 µg/mL (≈ 54.3 µM). For the same compound, in [6], the “Anti-Inflammatory Activity IC50 ± SD (reported)” value is 12.97 ± 0.23 µg/mL.
With `NNC(=O)c1ccncc1` [Isoniazid(1), Isoniazid], in [3], the “Anti-Inflammatory Activity IC50 ± SD” value was “Inactive”. For the same compound, at urease [1] (setting [9]), the “Urease Inhibition Activity IC50 ± SEM” value is reported as “Inactive”. Also, in data set [7], the IC50 was 28.5 ± 1.2 µM.
